Patent publication US20100104546A1, “MODULATORS OF ANTIGEN-DEPENDENT T CELL PROLIFERATION” (CHILDREN, YOUTH AND WOMEN'S HEALTH SERVICE, priority 2007, published 2010)

System: splenocytes
Assay: Ex-vivo antigen (SRBC)-dependent splenocyte proliferation after administration to SRBC-immunized mice (thymidine incorporation)
Type: in vivo, Balb/c mice
Conditions: ip in mouse serum, between 10-80 mg/kg
Protocol: Mice were immunized with SRBC for 5 days. β-oxa-21:3n-3 was delivered in DMSO and injected intraperitoneally at the indicated doses. After 2 h spleens were removed and single cell suspensions were prepared. The splenocytes were cultured for 3 days in the presence (□), or absence (▪) of SRBC. Thymidine incorporation for final 16 hours of culture was determined. The data is expressed as mean±SEM of 3 separate experiments each in triplicate.
Mice were immunized with SRBC for 5 days. Then β-oxa-21:3n-3 dissolved in syngeneic mouse serum and injected intraperitoneally (A), intravenously (B) or gavaged/orally (C) at the indicated concentrations. After 2 h spleens were removed, single cell suspensions prepared and the splenocytes cultured for 3 days in the presence (▪), or absence (□) of SRBC. Thymidine incorporation for final 16 hours of culture was determined. The data is presented as the mean±SEM of 3 separate experiments separate experiments, each in quintuplets.
Mice were immunized with SRBC. After 5 days they were given β-thia-21:3n-3 at the indicated doses i.p. After 2 hours the spleens were removed and processed into single cell suppressions. These were then cultured in the presence (□), or absence of (▪) of SRBC to assess the proliferation. The results are expressed as mean±SEM of 3 experiments. (B) Effect of β-oxa-21:3n-3 on tetanus toxoid (TT)-induced ex vivo lymphocyte responses. Mice were immunized with TT subcutaneously and after 7 days were given β-oxa-21:3n-3 in mouse serum, intraperitoneally. Two hours later the spleen removed, single cell suspension prepared and examined for lymphoproliferation responses to TT in 5 day cultures. The results are expressed as mean±SEM of 3 experiments.
6-7 weeks old Balb/c mice were injected subcutaneously with 100 μl of 10% sheep red blood cells (IMVS, Inc., Adelaide, Australia) After 5 days 100 ul of β-oxa-21:3n-3 at indicated amounts were injected intraperitoneally, intravenously or gavaged orally. In another experimental set up mice were given β-tha-21:3n-3 i.p. In a third approach mice were infected subcutaneously with 100 μl of Tetanus Toxoid (2,500 Lf/ml). Then 7 days later were given β-oxa-21:3n-3. At indicated time points mice were sacrificed and spleens were removed. Single cell suspensions were prepared and white blood cells (WBC) were enriched by passing through Ficoll-Paque Plus (GE Healthcare). Cells were washed with RPMI-1640 containing 10% fetal bovine serum, 10 mM Hepes, antibiotics and glutamine (RPMI-10) and counted using an automated Cell-Dyne 3500R (Abbott, Inc. MA) instrument. Cells were viable (>98%) as judged by trypan blue exclusion. (β-oxa-21:3n-3)- or vehicle-treated mouse samples (200,000/well) were mixed either with SRBC (600,000/well) with 100 μl of Tetanus toxoid (50 Lf/ml) or phytohaemaglutinin (PHA) (2 μg/ml) or with PHA plus phorbol myristate acetate (PMA) (10 ng/ml) or with PMA plus calcium ionophore A23187 ([…]). Cells were cultured in 96 well U bottom plates (Nunc, Inc. Denmark) for 3 days (except for TT −5 days) at 37° C. under humidified air containing 5% CO2. At some instances 50 μl of supernatants were transferred to a new plate and frozen immediately at −70° C. to be used for cytokine measurements. Thymidine (50 μl, 1 μCi/well) was added at final 16 hours of culture. Cells were harvested and thymidine incorporation was determined using a beta scintillation counter.

Substance: β-thia-21:3n-3
- lymphoproliferative response to SRBC: inhibition of the lymphoproliferative response in a dose dependent manner
